Reference: patent US10130633B2, “Compounds” (BAYER PHARMA AKTIENGESELLSCHAFT, priority 2013, dated 2018)
Structures can show the parent of a compound that is named as a salt.

Experiments:
[1] = test system: constitutive active colorectal cancer cell (CRC) Wnt pathway; assay: HCT116 TOPFlash cellular reporter assay (Super TopFlash luciferase), constitutive active Wnt pathway; assay type: cell-based; details: HCT116 TOP reporter cells, 36 hours incubation, luciferase expression
Experimental: In order to discover and characterize small molecules which inhibit the constitutive active colorectal cancer cell (CRC) Wnt pathway, a cellular reporter assay was employed. […] Stable transfectants were generated by cotransfection with pcDNA3 and selection of stable transfected cells with 1 mg/ml G418.

[2] = test system: HCT116 FOP control reporter cell line; assay: HCT116 FOPFlash control reporter assay (FOP control vector, non-functional TCF elements); assay type: cell-based; details: HCT116 FOP control reporter cells, 36 hours incubation, luciferase expression
Description: In a parallel approach, HCT116 cells were cotransfected with the FOP control vector and pcDNA3. The FOP vector is identical to the TOP construct, but it contains instead of functional TCF elements a randomized, non-functional sequence. For this transfection a stable transfected cell line was generated as well.

SMILES | IC50 ([1]; Homo sapiens, HCT-116, 36 h) | IC50 ([2]; Homo sapiens, HCT-116, 36 h) | IC50 [1] | IC50 [2]
CC(C(=O)Nc1cc(C(=O)Nc2nnc(-c3ccccc3)s2)ccc1CS(C)(=O)=O)N1CCN(C)CC1 (stereo not drawn) [Example 231, 3-{[2-(4-methylpiperazin-1-yl)propanoyl]amino}-4-[(methylsulfonyl)methyl]-N-(5-phenyl-1,3,4-thiadiazol-2-yl)benzamide] |  | ≥ 50000 nM | 1020 nM | 
O=C(CN1CCOCC1)Nc1cc(C(=O)Nc2nnc(-c3ccc(F)cc3)s2)ccc1OC(F)(F)F [Example 99, N-[5-(4-fluorophenyl)-1,3,4-thiadiazol-2-yl]-3-[(morpholin-4-ylacetyl)amino]-4-(trifluoromethoxy)benzamide] | 935 nM | 9300 nM |  | 
COCc1ccc(C(=O)Nc2nnc(-c3ccccc3)s2)cc1NC(=O)CN1CCOCC1 [Example 83, 4-(methoxymethyl)-3-[(morpholin-4-ylacetyl)amino]-N-(5-phenyl-1,3,4-thiadiazol-2-yl)benzamide] | 515 nM | ≥ 50000 nM |  | 
O=C(CN1CCOCC1)Nc1cc(C(=O)Nc2ccc(-c3ccccc3F)nc2)ccc1OC(F)(F)F [Example 5, N-[6-(2-fluorophenyl)pyridin-3-yl]-3-[(morpholin-4-ylacetyl)amino]-4-(trifluoromethoxy)benzamide] | 40.3 nM | ≥ 50000 nM |  | 
Cc1ccc(-c2nnc(NC(=O)c3ccc(OC(F)(F)F)c(NC(=O)CN4CCN(C)CC4)c3)s2)cc1 [Example 102, N-[5-(4-methylphenyl)-1,3,4-thiadiazol-2-yl]-3-{[(4-methylpiperazin-1-yl)acetyl]amino}-4-(trifluoromethoxy)benzamide] | 458 nM | 19500 nM |  | 
Cc1ccc(C(=O)Nc2nnc(-c3ccccc3)s2)cc1NC(=O)C1(N2CCN(C)CC2)CC1 [Example 157, 4-methyl-3-({[1-(4-methylpiperazin-1-yl)cyclopropyl]carbonyl}amino)-N-(5-phenyl-1,3,4-thiadiazol-2-yl)benzamide hydrochloride (1:1)] | 96.6 nM | ≥ 50000 nM |  | 
O=C(CN1CC2CCC(C1)O2)Nc1cc(C(=O)Nc2nnc(-c3ccccc3)s2)ccc1OC(F)F [Example 86, 4-(difluoromethoxy)-3-[(8-oxa-3-azabicyclo[3.2.1]oct-3-ylacetyl)amino]-N-(5-phenyl-1,3,4-thiadiazol-2-yl)benzamide] | 890 nM | ≥ 50000 nM |  | 
COc1ccc(NC(=O)c2ncc(-c3ccccc3)s2)cc1NC(=O)CN1CCOCC1 [Example 23, N-{4-methoxy-3-[(morpholin-4-ylacetyl)amino]phenyl}-5-phenyl-1,3-thiazole-2-carboxamide] | 98 nM | ≥ 50000 nM |  | 
COc1ccc(NC(=O)c2ccc(-c3ccccc3)[nH]2)cc1NC(=O)CN1CCOCC1 [Example 24, N-{4-methoxy-3-[(morpholin-4-ylacetyl)amino]phenyl}-5-phenyl-1H-pyrrole-2-carboxamide] |  | ≥ 50000 nM |  | 
CC(C(=O)Nc1cc(C(=O)Nc2nnc(-c3ccccc3)s2)ccc1CS(C)(=O)=O)N1CCN(C)CC1 (stereo not drawn) [Example 230, 3-{[2-(4-methylpiperazin-1-yl)propanoyl]amino}-4-[(methylsulfonyl)methyl]-N-(5-phenyl-1,3,4-thiadiazol-2-yl)benzamide trifluoroacetate (1:1)] | 720 nM |  |  | 
C[C@@H](C(=O)Nc1cc(C(=O)Nc2ccc(-c3ccc(N)cc3)nc2)ccc1OC(F)(F)F)N1CCOCC1 (single isomer, unassigned) [Example 118, N-[6-(4-aminophenyl)pyridin-3-yl]-3-{[(2R)-2-(morpholin-4-yl)propanoyl]amino}-4-(trifluoromethoxy)benzamide or N-[6-(4-aminophenyl)pyridin-3-yl]-3-{[(2S)-2-(morpholin-4-yl)propanoyl]amino}-4-(trifluoromethoxy)benzamide] |  |  |  | ≥ 50000 nM

Other lines, results leading:

IC50 ([1]; Homo sapiens, HCT-116, 36 h) | IC50 ([2]; Homo sapiens, HCT-116, 36 h) | IC50 [1] | IC50 [2] | SMILES
500 nM | 25000 nM |  |  | CS(=O)(=O)c1ccc(C(=O)Nc2ccc(-c3ccccc3F)nc2)cc1NC(=O)CN1CCOCC1 [Example 139, N-[6-(2-fluorophenyl)pyridin-3-yl]-4-(methylsulfonyl)-3-[(morpholin-4-ylacetyl)amino]benzamide]
150 nM | ≥ 50000 nM |  |  | COCCN(C)C1(C(=O)Nc2cc(C(=O)Nc3nnc(-c4ccccc4)s3)ccc2OC(F)(F)F)CC1 [Example 261, 3-[({1-[(2-methoxyethyl)(methyl)amino]cyclopropyl}carbonyl)amino]-N-(5-phenyl-1,3,4-thiadiazol-2-yl)-4-(trifluoromethoxy)benzamide]
345 nM | ≥ 50000 nM |  |  | Cc1ccccc1-c1nnc(NC(=O)c2ccc(OC3CC3)c(NC(=O)CN3CCOCC3)c2)s1 [Example 266, 4-(cyclopropyloxy)-N-[5-(2-methylphenyl)-1,3,4-thiadiazol-2-yl]-3-[(morpholin-4-ylacetyl)amino]benzamide]
84.8 nM | ≥ 50000 nM |  |  | CN1CCN(C2(C(=O)Nc3cc(C(=O)Nc4ccc(-c5ccccc5F)nc4)ccc3OC3CC3)CC2)CC1 [Example 135, 4-(cyclopropyloxy)-N-[6-(2-fluorophenyl)pyridin-3-yl]-3-({[1-(4-methylpiperazin-1-yl)cyclopropyl]carbonyl}amino)benzamide]
71.7 nM | 8800 nM |  |  | CC(C(=O)Nc1cc(NC(=O)c2ccc(-c3cccc(F)c3)nc2)ccc1OC(F)(F)F)N1C[C@@H]2C[C@H]1CO2 (stereo partly drawn) [Example 199, 6-(3-fluorophenyl)-N-[3-({2-[(1S,4S)-2-oxa-5-azabicyclo[2.2.1]hept-5-yl]propanoyl}amino)-4-(trifluoromethoxy)phenyl] nicotinamide]
118 nM | ≥ 50000 nM |  |  | O=C(CN1CCOCC1)Nc1cc(C(=O)Nc2nnc(-c3ccccc3)s2)ccc1OC1CC1 [Example 170, 4-(cyclopropyloxy)-3-[(morpholin-4-ylacetyl)amino]-N-(5-phenyl-1,3,4-thiadiazol-2-yl)benzamide]
148 nM | 8800 nM |  |  | CC(C(=O)Nc1cc(NC(=O)c2ccc(-c3cccc(F)c3)nc2)ccc1OC(F)(F)F)N1C[C@@H]2C[C@H]1CO2 (relative stereo) [Example 193, 6-(3-fluorophenyl)-N-[3-({(2R*)-2-[(1S,4S)-2-oxa-5-azabicyclo[2.2.1]hept-5-yl]propanoyl}amino)-4-(trifluoromethoxy)phenyl] nicotinamide]
 |  | 29 nM | ≥ 50000 nM | CC(C(=O)Nc1cc(C(=O)Nc2ccc(-c3cccc(F)c3)nc2)ccc1OC(F)(F)F)N1CCOCC1 (stereo not drawn) [Example 183, N-[6-(3-fluorophenyl)pyridin-3-yl]-3-{[2-(morpholin-4-yl)propanoyl]amino}-4-(trifluoromethoxy)benzamide]
885 nM | ≥ 50000 nM |  |  | O=C(CN1CCOCC1)Nc1cc(C(=O)Nc2nnc(-c3ccccc3F)s2)ccc1OC(F)(F)F [Example 127, N-[5-(2-fluorophenyl)-1,3,4-thiadiazol-2-yl]-3-[(morpholin-4-ylacetyl)amino]-4-(trifluoromethoxy)benzamide]
3020 nM | ≥ 50000 nM |  |  | CC[C@H](C(=O)Nc1cc(C(=O)Nc2nnc(-c3ccccc3)s2)ccc1OC(F)(F)F)N1CCN(C)CC1 [Example 274, 3-{[(2R)-2-(4-methylpiperazin-1-yl)butanoyl]amino}-N-(5-phenyl-1,3,4-thiadiazol-2-yl)-4-(trifluoromethoxy)benzamide]
240 nM | ≥ 50000 nM |  |  | COc1ccc(NC(=O)c2ccc(-c3ccccc3)nc2)cc1NC(=O)C1(N2CCOCC2)CC1 [Example 256, N-[4-methoxy-3-({[1-(morpholin-4-yl)cyclopropyl]carbonyl}amino)phenyl]-6-phenylnicotinamide]
 |  | 160 nM | 10000 nM | CC(C(=O)Nc1cc(NC(=O)c2ccc(-c3cc(F)cc(F)c3)nc2)ccc1OC(F)(F)F)N1C[C@@H]2C[C@H]1CO2 (relative stereo) [Example 185, 6-(3,5-difluorophenyl)-N-[3-({(2R*)-2-[(1S,4S)-2-oxa-5-azabicyclo[2.2.1]hept-5-yl]propanoyl}amino)-4-(trifluoromethoxy)phenyl] nicotinamide]
200 nM | ≥ 50000 nM |  |  | CN1CCN(CC(=O)Nc2cc(C(=O)Nc3nnc(-c4cccc(F)c4)s3)ccc2OC(F)(F)F)CC1 [Example 152, N-[5-(3-fluorophenyl)-1,3,4-thiadiazol-2-yl]-3-{[(4-methylpiperazin-1-yl)acetyl]amino}-4-(trifluoromethoxy)benzamide]
704 nM | 47500 nM |  |  | CN1CCN(CC(=O)Nc2cc(C(=O)Nc3nnc(-c4ccc(F)cc4)s3)ccc2OC(F)(F)F)CC1 [Example 149, N-[5-(4-fluorophenyl)-1,3,4-thiadiazol-2-yl]-3-{[(4-methylpiperazin-1-yl)acetyl]amino}-4-(trifluoromethoxy)benzamide]
365 nM | ≥ 50000 nM |  |  | O=C(CN1CCOCC1)Nc1cc(C(=O)Nc2nnc(-c3ccccc3)s2)ccc1OCC1CC1 [Example 268, 4-(cyclopropylmethoxy)-3-[(morpholin-4-ylacetyl)amino]-N-(5-phenyl-1,3,4-thiadiazol-2-yl)benzamide]
 | ≥ 50000 nM |  |  | O=C(CN1CCOCC1)Nc1cc(NC(=O)c2cc(-c3ccccc3)[nH]n2)ccc1OC(F)(F)F [Example 124, N-{3-[(morpholin-4-ylacetyl)amino]-4-(trifluoromethoxy)phenyl}-5-phenyl-1H-pyrazole-3-carboxamide]
 |  |  | ≥ 50000 nM | CC(C(=O)Nc1cc(C(=O)Nc2nnc(-c3ccccc3)s2)ccc1OC(F)(F)F)N1CCOCC1 (stereo not drawn) [Example 242, 3-{[2-(morpholin-4-yl)propanoyl]amino}-N-(5-phenyl-1,3,4-thiadiazol-2-yl)-4-(trifluoromethoxy)benzamide]
